Tests used:
MCF7 = assay: Cytotoxicity in human MCF7 cells assessed as reduction in cell viability incubated for 72 hrs by MTS assay; format: functional, cell-based; conditions: MCF7, 72 h
MDA-MB-468 = assay: Cytotoxicity in human MDA-MB-468 cells assessed as reduction in cell viability incubated for 72 hrs by MTS assay; format: functional, cell-based; conditions: MDA-MB-468, 72 h
MOLT-4 = assay: Cytotoxicity in human MOLT4 cells assessed as reduction in cell viability incubated for 72 hrs by MTS assay; format: functional, cell-based; conditions: MOLT-4, 72 h
MV4-11 = assay: Cytotoxicity in human MV4-11 cells assessed as reduction in cell viability incubated for 72 hrs by MTS assay; format: functional, cell-based; conditions: MV4-11, 72 h
MRC5 = assay: Cytotoxicity in human MRC5 cells assessed as reduction in cell viability incubated for 72 hrs by MTS assay; format: cell-based; conditions: MRC5, 72 h
[1] = biological target: Dual specificity tyrosine-phosphorylation-regulated kinase 1A (Homo sapiens, UniProt Q13627); assay: Inhibition of DYRK1A (unknown origin) by [33P]-ATP filter binding kinase assay
[2] = biological target: Serine/threonine-protein kinase pim-1 (Homo sapiens, UniProt P11309); assay: Inhibition of PIM1 (unknown origin) by [33P]-ATP filter binding kinase assay
Serine/threonine-protein kinase pim-1, sequence (P11309 whole entry): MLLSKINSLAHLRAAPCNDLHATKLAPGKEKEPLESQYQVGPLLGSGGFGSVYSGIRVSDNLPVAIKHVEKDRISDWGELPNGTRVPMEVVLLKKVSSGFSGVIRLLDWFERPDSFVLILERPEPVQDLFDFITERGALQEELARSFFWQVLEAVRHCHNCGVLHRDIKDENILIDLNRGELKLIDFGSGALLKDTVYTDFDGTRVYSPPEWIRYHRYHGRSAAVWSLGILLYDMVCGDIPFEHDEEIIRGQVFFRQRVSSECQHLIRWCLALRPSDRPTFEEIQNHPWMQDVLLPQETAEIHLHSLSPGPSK

[3] = biological target: Serine/threonine-protein kinase pim-2 (Homo sapiens, UniProt Q9P1W9); assay: Inhibition of PIM2 (unknown origin) by [33P]-ATP filter binding kinase assay
Serine/threonine-protein kinase pim-2, sequence (Q9P1W9 whole entry): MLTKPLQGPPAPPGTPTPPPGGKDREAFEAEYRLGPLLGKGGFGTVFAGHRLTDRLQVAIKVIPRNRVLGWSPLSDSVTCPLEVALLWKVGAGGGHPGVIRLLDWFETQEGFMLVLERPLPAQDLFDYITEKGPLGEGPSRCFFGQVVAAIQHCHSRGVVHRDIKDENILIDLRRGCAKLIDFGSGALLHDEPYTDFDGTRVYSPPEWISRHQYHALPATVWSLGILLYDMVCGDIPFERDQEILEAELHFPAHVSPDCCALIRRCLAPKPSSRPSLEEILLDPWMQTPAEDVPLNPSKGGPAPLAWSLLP

[4] = biological target: Serine/threonine-protein kinase pim-3 (Homo sapiens, UniProt Q86V86); assay: Inhibition of PIM3 (unknown origin) by [33P]-ATP filter binding kinase assay
[5] = biological target: Serine/threonine-protein kinase SIK3 (Homo sapiens, UniProt Q9Y2K2); assay: Inhibition of SIK3 (unknown origin) by [33P]-ATP filter binding kinase assay
Serine/threonine-protein kinase SIK3, sequence (Q9Y2K2 whole entry): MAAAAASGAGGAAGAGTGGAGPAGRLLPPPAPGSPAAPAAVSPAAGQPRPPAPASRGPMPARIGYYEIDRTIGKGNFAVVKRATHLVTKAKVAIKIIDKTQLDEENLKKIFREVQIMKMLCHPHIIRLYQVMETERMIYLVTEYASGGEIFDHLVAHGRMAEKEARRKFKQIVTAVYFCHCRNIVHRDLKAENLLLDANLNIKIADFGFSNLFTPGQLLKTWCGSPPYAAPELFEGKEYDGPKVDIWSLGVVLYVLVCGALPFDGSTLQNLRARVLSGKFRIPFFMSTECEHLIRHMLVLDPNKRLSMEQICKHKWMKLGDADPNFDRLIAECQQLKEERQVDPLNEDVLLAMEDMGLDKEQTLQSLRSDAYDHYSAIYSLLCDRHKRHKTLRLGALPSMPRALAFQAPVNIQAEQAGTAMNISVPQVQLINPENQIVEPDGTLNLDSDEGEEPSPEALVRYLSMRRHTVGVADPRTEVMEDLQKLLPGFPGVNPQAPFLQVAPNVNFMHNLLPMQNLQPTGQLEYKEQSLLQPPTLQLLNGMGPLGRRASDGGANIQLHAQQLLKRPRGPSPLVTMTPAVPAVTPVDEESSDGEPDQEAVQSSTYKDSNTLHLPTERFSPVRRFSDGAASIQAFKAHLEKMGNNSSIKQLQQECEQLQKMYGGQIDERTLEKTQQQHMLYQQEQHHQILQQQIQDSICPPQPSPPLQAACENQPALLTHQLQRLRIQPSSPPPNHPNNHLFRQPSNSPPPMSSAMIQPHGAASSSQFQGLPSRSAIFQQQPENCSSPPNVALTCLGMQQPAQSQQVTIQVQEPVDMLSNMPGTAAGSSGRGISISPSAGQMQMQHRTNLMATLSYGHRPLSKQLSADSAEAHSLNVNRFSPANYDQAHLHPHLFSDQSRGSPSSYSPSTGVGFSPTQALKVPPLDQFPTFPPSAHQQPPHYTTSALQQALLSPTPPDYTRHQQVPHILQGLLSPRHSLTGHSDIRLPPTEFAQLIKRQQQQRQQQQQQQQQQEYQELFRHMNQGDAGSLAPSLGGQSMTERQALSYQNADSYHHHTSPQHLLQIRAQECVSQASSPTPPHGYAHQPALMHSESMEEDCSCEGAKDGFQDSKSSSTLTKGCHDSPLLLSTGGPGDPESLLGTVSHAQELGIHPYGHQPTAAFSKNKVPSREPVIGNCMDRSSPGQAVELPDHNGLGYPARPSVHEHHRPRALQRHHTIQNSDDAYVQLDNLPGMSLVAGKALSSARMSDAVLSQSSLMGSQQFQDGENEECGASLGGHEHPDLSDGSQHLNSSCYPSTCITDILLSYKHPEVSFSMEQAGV

[6] = biological target: T1, Mitogen-activated protein kinase kinase kinase kinase 2 (Homo sapiens, UniProt Q12851); assay: Inhibition of GCK (unknown origin) by [33P]-ATP filter binding kinase assay
T1 sequence (Q12851 whole entry): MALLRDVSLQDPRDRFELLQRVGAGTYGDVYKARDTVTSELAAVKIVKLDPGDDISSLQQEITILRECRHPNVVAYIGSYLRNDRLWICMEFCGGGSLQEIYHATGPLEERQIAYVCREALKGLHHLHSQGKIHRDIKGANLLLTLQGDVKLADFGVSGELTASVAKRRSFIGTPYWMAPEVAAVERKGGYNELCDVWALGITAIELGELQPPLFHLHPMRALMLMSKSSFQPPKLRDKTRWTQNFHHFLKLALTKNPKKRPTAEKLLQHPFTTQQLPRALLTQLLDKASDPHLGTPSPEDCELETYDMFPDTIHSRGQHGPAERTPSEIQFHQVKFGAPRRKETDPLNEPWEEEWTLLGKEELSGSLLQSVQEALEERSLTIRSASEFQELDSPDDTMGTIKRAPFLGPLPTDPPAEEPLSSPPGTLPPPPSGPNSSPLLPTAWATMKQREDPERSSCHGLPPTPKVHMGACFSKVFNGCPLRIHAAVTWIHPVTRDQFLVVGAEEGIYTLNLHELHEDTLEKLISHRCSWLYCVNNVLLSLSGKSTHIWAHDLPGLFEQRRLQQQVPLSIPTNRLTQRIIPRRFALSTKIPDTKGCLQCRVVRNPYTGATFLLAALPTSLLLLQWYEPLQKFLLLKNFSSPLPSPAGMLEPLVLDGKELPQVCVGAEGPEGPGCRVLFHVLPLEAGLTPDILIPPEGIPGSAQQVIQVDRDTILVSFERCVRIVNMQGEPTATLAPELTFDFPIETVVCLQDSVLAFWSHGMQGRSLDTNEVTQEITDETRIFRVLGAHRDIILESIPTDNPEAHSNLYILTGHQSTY

[7] = biological target: Mitogen-activated protein kinase kinase kinase 9 (Homo sapiens, UniProt P80192); assay: Inhibition of MLK1 (unknown origin) by [33P]-ATP filter binding kinase assay
Mitogen-activated protein kinase kinase kinase 9, sequence (P80192 whole entry): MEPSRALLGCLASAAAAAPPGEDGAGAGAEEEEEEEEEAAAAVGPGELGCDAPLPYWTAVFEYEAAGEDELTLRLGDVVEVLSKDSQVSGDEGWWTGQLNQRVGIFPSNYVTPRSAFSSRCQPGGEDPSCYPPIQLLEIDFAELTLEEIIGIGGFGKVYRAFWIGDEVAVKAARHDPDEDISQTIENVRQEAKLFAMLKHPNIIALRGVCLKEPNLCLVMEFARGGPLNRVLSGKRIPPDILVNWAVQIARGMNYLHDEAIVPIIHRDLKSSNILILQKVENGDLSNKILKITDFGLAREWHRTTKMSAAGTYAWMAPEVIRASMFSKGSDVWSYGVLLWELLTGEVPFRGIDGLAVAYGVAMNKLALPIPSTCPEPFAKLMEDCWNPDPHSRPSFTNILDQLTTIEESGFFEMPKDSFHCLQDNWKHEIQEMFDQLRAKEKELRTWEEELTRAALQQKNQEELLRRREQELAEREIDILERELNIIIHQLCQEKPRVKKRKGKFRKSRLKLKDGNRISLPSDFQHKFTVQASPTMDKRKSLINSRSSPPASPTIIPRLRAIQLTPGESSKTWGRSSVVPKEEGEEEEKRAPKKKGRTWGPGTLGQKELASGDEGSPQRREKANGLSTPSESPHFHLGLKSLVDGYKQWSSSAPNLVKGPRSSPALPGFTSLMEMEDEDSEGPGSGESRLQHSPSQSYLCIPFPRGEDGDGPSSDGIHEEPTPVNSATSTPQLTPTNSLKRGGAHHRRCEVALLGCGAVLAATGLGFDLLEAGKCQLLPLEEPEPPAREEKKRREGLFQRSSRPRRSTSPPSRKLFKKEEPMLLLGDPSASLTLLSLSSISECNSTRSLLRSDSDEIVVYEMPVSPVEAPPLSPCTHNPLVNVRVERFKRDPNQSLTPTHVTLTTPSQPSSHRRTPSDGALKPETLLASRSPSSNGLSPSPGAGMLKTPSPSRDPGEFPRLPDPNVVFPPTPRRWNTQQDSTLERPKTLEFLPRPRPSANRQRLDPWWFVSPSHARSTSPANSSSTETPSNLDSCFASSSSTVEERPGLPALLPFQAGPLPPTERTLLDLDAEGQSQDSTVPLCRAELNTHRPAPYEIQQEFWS

[8] = biological target: Receptor-interacting serine/threonine-protein kinase 2 (Homo sapiens, UniProt O43353); assay: Inhibition of RIPK2 (unknown origin) by [33P]-ATP filter binding kinase assay
Receptor-interacting serine/threonine-protein kinase 2, sequence (O43353 whole entry): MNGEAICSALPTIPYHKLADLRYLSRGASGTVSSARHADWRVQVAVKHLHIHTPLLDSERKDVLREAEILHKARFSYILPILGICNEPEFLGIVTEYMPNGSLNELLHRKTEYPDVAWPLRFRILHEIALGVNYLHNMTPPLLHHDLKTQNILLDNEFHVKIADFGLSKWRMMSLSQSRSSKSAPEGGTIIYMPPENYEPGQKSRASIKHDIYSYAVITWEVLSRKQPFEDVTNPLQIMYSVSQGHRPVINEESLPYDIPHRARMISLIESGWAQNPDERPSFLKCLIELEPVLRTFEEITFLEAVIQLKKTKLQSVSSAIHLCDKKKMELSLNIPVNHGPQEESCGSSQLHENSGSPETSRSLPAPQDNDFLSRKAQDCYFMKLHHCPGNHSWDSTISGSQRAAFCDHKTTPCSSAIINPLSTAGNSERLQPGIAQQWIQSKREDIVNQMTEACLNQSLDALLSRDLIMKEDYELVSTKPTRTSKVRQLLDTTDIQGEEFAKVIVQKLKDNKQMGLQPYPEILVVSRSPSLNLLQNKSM

Aurora kinase B = Aurora kinase B (Homo sapiens, UniProt Q96GD4); assay: Inhibition of Aurora B (unknown origin) by [33P]-ATP filter binding kinase assay
Aurora kinase B, sequence (Q96GD4 whole entry): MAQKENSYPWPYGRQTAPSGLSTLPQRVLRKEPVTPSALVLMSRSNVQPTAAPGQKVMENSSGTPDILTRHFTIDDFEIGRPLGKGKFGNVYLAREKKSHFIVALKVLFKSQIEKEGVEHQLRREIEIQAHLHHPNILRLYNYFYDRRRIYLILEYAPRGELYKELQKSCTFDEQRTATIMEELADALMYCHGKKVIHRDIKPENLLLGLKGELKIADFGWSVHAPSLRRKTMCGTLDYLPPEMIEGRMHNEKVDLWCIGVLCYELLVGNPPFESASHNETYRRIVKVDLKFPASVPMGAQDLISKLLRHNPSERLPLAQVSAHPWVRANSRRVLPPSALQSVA

[9] = biological target: T2, Serine/threonine-protein kinase 17A (Homo sapiens, UniProt Q9UEE5); assay: Inhibition of DRAK1 (unknown origin) expressed in HEK293 cells by NanoLuc-luciferase reporter based intracellular ATP competitiveness assay; format: cell-based
T2 sequence (Q9UEE5 whole entry): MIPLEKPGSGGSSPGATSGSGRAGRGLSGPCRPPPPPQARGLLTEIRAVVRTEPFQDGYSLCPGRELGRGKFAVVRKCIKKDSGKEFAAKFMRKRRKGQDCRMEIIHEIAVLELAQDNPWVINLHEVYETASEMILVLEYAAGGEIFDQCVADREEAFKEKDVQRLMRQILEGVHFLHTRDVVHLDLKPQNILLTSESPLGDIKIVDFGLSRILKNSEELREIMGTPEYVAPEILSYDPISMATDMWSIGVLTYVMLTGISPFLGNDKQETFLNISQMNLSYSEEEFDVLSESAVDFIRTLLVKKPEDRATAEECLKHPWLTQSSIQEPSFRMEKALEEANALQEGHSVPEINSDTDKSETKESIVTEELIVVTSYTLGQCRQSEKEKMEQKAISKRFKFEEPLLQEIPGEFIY

[10] = biological target: T3, Serine/threonine-protein kinase 17B (Homo sapiens, UniProt O94768); assay: Inhibition of DRAK2 (unknown origin) expressed in HEK293 cells by NanoLuc-luciferase reporter based intracellular ATP competitiveness assay; format: cell-based
T3 sequence (O94768 whole entry): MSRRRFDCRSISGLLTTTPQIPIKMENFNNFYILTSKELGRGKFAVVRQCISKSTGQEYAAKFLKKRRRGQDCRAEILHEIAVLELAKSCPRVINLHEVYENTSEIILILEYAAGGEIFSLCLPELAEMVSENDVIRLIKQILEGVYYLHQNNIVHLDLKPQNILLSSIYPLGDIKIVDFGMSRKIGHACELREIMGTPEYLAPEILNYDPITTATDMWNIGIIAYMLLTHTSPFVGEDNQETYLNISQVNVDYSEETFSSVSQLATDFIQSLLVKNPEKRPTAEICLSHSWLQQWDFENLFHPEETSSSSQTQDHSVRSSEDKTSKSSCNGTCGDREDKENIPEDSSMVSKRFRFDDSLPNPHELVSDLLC

| IC50 [1] [µM] | IC50 [2] [µM] | IC50 [3] [µM] | IC50 [4] [µM] | IC50 [5] [µM] | IC50 [6] [µM] | IC50 [7] [µM] | IC50 [8] [µM] | IC50 (Aurora kinase B) [µM] | IC50 [9] [µM] | IC50 [10] [µM] | Structure (SMILES) | IC50 (MCF7) [µM] | IC50 (MDA-MB-468) [µM] | IC50 (MOLT-4) [µM] | IC50 (MV4-11) [µM] | IC50 (MRC5) [µM] |
| --- | --- | --- | --- | --- | --- | --- | --- | --- | --- | --- | --- | --- | --- | --- | --- | --- |
| > 10 | > 10 | > 10 | > 10 | > 10 | > 10 | > 10 | > 10 | > 10 | > 10 | > 10 | COc1cc(Br)cc2[nH]cc(-c3oc(-c4ccc[nH]4)nc3I)c12 | > 10 | > 10 | > 10 | > 10 | > 10 |
| > 10 | > 10 | > 10 | > 10 | > 10 | > 10 | > 10 | > 10 | > 10 | > 10 | 3.3 | COc1cc(Br)cc2[nH]cc(-c3cnc(-c4ccc(Br)[nH]4)o3)c12 | > 10 | > 10 | > 10 | > 10 | > 10 |
| > 10 | 0.9 | 22 | 3.7 | > 10 | 1.2 | 0.9 | > 10 | 0.9 | > 10 | 8.3 | COc1cc(Br)cc2[nH]cc(-c3cnc(-c4ccc[nH]4)o3)c12 | 3.9 | > 10 | > 10 | > 10 | > 10 |

| Structure (SMILES) | IC50 [1] [µM] | IC50 [2] [µM] | IC50 [3] [µM] | IC50 [4] [µM] | IC50 [5] [µM] | IC50 [6] [µM] | IC50 [7] [µM] | IC50 [8] [µM] | IC50 (Aurora kinase B) [µM] | IC50 [9] [µM] | IC50 [10] [µM] | IC50 (MCF7) [µM] | IC50 (MDA-MB-468) [µM] | IC50 (MOLT-4) [µM] | IC50 (MV4-11) [µM] | IC50 (MRC5) [µM] |
| --- | --- | --- | --- | --- | --- | --- | --- | --- | --- | --- | --- | --- | --- | --- | --- | --- |
| COc1cc2c(-c3cnc(-c4ccc[nH]4)o3)c[nH]c2cc1Br |  | 0.2 | 11 | 1.8 | 1.2 | 0.6 | 0.6 | 1.1 | 0.8 |  | 0.5 | 8.5 | > 10 | 9.9 | 4.4 | 7.1 |
